Source: US11939305B1, “Ethyl 2-(5-(3-fluorophenyl)-4-phenyl-4H-1,2,4-triazol-3-ylthio)acetate as an antimicrobial compound” (KING FAISAL UNIVERSITY, priority 2023, dated 2024)

Experiments:
Assay type in all cases: cell-based
Staphylococcus aureus = assay: Agar plate disc-diffusion, antibacterial inhibition zone
Method: (§1) The agar plate disc-diffusion method was applied. […] The discs were then placed onto the surface of agar plates (nutrient agar for bacteria and Sabouraud's dextrose agar for fungi) seeded with the test organism. Each plate contained 15 mL of the agar medium, previously seeded with 0.2 mL of the broth culture of each organism pregrown for 18 hours. The plates were incubated at 37° C. for 48 hours, and 72 hours for fungi. The inhibition zones were measured in mm. Discs impregnated with DMSO were used as a control, and its inhibition zone was subtracted from the tested compound actual inhibition zone.

Bacillus cereus = assay: as above
Method: as §1

Pseudomonas aeruginosa = assay: as above
Method: as §1

Escherichia coli = assay: as above
Method: as §1

[1] = tested on: Chrysosporium keratinophilum; assay: Agar plate disc-diffusion, antifungal inhibition zone
Method: as §1

Aspergillus flavus = assay: as above
Method: as §1

different microbes = assay: Antimicrobial screening, overall statement; details: against different microbes (bacteria and fungi of Tables 1 and 2)
Method: The agar plate disc-diffusion method was applied. Sterilized filter papers (6 mm in diameter) were wetted with 10 μL of a solution of ethyl 2-(5-(3-fluorophenyl)-4-phenyl-4H-1,2,4-triazol-3-ylthio)acetate (III) to be tested, containing 10 mg/mL in DMSO, and the discs were allowed to air dry. The discs were then placed onto the surface of agar plates (nutrient agar for bacteria and Sabouraud's dextrose agar for fungi) seeded with the test organism. Each plate contained 15 mL of the agar medium, previously seeded with 0.2 mL of the broth culture of each organism pregrown for 18 hours. The plates were incubated at 37° C. for 48 hours, and 72 hours for fungi. The inhibition zones were measured in mm. Discs impregnated with DMSO were used as a control, and its inhibition zone was subtracted from the tested compound actual inhibition zone.

[2] = A = concentration of comp. = 10,000 μL
[3] = B = concentration of comp. = 30,000 μL
[4] = C = concentration of comp. = 50,000 μL

Compound	inhibition zone (Staphylococcus aureus; [2]) [mm]	inhibition zone (Staphylococcus aureus; [3]) [mm]	inhibition zone (Staphylococcus aureus; [4]) [mm]	inhibition zone (Bacillus cereus; [2]) [mm]	inhibition zone (Bacillus cereus; [3]) [mm]	inhibition zone (Bacillus cereus; [4]) [mm]	inhibition zone (Pseudomonas aeruginosa; [2]) [mm]	inhibition zone (Pseudomonas aeruginosa; [3]) [mm]	inhibition zone (Pseudomonas aeruginosa; [4]) [mm]	inhibition zone (Escherichia coli; [2]) [mm]	inhibition zone (Escherichia coli; [3]) [mm]	inhibition zone (Escherichia coli; [4]) [mm]	inhibition zone [1, 2] [mm]	inhibition zone [1, 3] [mm]	inhibition zone [1, 4] [mm]	inhibition zone (Aspergillus flavus; [2]) [mm]	inhibition zone (Aspergillus flavus; [3]) [mm]	inhibition zone (Aspergillus flavus; [4]) [mm]	antimicrobial activity (in words) (different microbes)
O=C(O)c1cn(C2CC2)c2cc(N3CCNCC3)c(F)cc2c1=O [Cip., ciprofloxacin, reference compound]	43	44	53	29	30	42	29	30	53	30	39	60	29	30	53	29	30	42	–
CCOC(=O)CSc1nnc(-c2cccc(F)c2)n1-c1ccccc1 [III, ethyl 2-(5-(3-fluorophenyl)-4-phenyl-4H-1,2,4-triazol-3-ylthio)acetate]	18	21	30	24	27	39	25	26	44	26	34	50	25	29	47	20	23	29	excellent antimicrobials activities
